pIC50: −log10 of the molar value. Active and inactive are the calls of the source. The rule behind the calls is not given here.
Key:
[1] = Acute toxicity in mouse assessed as change in weight of liver at 30 to 90 mg/kg, po single dose measured for 7 days; format: organism-based; settings: in vivo, 168 h, dose 30-90 mg/kg, time 7 day
U2OS [2] = experiment: Induction of apoptosis in human U2OS cells assessed as viable cells at 2 uM measured after 48 hrs annexin-V and propidium iodide staining based flow cytometry analysis (reference value: 89.2%); format: functional; settings: read-out: Activity
[3] = Acute toxicity in mouse assessed as creatinine (Cr) level in serum at 30 to 90 mg/kg, po single dose measured for 7 days; format: organism-based; settings: in vivo, 168 h, dose 30-90 mg/kg, time 7 day
MG-63 [4] = experiment: Inhibition of TRF2 expression in human MG-63 cells by co-immunoprecipitation based Western blot analysis; format: functional, cell-based
MG-63 [5] = experiment: Induction of apoptosis in human MG-63 cells assessed as viable cells at 2 uM measured after 48 hrs annexin-V and propidium iodide staining based flow cytometry analysis (reference value: 90.7%); format: functional; settings: read-out: Activity
MG-63 [6] = experiment: Induction of apoptosis in human MG-63 cells assessed as early apoptotic cells at 2 uM measured after 48 hrs annexin-V and propidium iodide staining based flow cytometry analysis (reference value: 0.66%); format: functional
MG-63 [7] = experiment: […] inhibition of TRF2 expression in human MG-63 cells at 4 uM measured upto 12 hrs measured after drug washout by Western blot analysis; format: functional, cell-based
[8] = target: T1, Telomeric repeat-binding factor 2 (Homo sapiens) (UniProt Q15554); experiment: Induction of thermal stabilization of TRF2 TRFH domain in human MG-63 cells at 46 to 55 degC incubated for 4 hrs by cellular thermal shift assay (CESTA) based Western blot analysis; format: cell-based
T1 sequence (whole entry): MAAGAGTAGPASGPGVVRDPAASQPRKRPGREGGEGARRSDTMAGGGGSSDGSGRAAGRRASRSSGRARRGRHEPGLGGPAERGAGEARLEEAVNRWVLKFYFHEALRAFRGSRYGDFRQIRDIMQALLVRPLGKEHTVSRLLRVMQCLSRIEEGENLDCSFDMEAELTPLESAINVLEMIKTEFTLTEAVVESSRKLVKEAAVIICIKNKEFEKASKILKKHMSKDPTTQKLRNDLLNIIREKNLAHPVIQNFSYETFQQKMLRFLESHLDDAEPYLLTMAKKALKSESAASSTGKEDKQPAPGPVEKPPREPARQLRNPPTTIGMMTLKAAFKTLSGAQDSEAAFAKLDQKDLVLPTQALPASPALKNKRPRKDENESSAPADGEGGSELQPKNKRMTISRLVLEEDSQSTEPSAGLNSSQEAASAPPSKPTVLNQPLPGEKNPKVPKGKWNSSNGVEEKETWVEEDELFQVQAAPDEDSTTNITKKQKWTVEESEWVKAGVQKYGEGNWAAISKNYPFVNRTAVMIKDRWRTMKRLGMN

U2OS [9] = experiment: Antiproliferative activity against human U2OS cells assessed as reduction in cell viability incubated for 48 hrs by MTT assay; format: functional, cell-based
U2OS [10] = experiment: Induction of apoptosis in human U2OS cells assessed as viable cells at 4 uM measured after 48 hrs annexin-V and propidium iodide staining based flow cytometry analysis (reference value: 89.2%); format: functional; settings: read-out: Activity
U2OS [11] = experiment: Induction of apoptosis in human U2OS cells assessed as necrotic cells at 4 uM measured after 48 hrs annexin-V and propidium iodide staining based flow cytometry analysis (reference value: 2.46%); format: functional
U2OS [12] = experiment: Induction of apoptosis in human U2OS cells assessed as late apoptotic cells at 2 uM measured after 48 hrs annexin-V and propidium iodide staining based flow cytometry analysis (reference value: 5.94%); format: functional
MG-63 [13] = experiment: Induction of apoptosis in human MG-63 cells assessed as reduction in TRF2 foci at 2 to 4 microM by Immunofluorescence based FISH assay; format: functional, cell-based; settings: dose 2-4 µM
[14] = Acute toxicity in mouse assessed as change in weight of heart at 30 to 90 mg/kg, po single dose measured for 7 days; format: organism-based; settings: in vivo, 168 h, dose 30-90 mg/kg, time 7 day
MG-63 [15] = experiment: Antitumor activity against human MG-63 cells xenografted in female BALB/c mouse model assessed as incomplete nuclei appearance in tumor tissue treated via oral gavage administered once a day for 3 weeks by HE staining analysis; format: functional, cell-based; settings: dose 10-60 mg/kg
U2OS [16] = experiment: Induction of DNA damage in human U2OS cells assessed as increase in telomere dysfunction-foci at 4 uM by Immunofluorescence based FISH assay; format: functional, cell-based
[17] = Acute toxicity in mouse assessed as change in weight of kidney at 30 to 90 mg/kg, po single dose measured for 7 days; format: organism-based; settings: in vivo, 168 h, dose 30-90 mg/kg, time 7 day
MG-63 [18] = experiment: Antitumor activity against human MG-63 cells xenografted in female BALB/c mouse model assessed as upregulation of gamma-H2AX in tumor treated via oral gavage administered once a day for 3 weeks by IHC analysis; format: functional, cell-based; settings: dose 10-60 mg/kg
MG-63 [19] = experiment: Induction of apoptosis in human MG-63 cells assessed as early apoptotic cells at 4 uM measured after 48 hrs annexin-V and propidium iodide staining based flow cytometry analysis (reference value: 0.66%); format: functional
U2OS [20] = experiment: Downregulation of TRF expression levels in human U2OS cells measured after 48 hrs by Western blot analysis; format: functional, cell-based; settings: dose 2-4 µM
[21] = Toxicity in female BALB/c mouse model xenografted with human MG-63 cells assessed as drug tolerance at 10 to 60 mg/kg, via oral gavage administered once a day for 3 weeks; format: organism-based; settings: in vivo, 504 h, dose 10-60 mg/kg
MG-63 [22] = experiment: Induction of apoptosis in human MG-63 cells assessed as late apoptotic cells at 2 uM measured after 48 hrs annexin-V and propidium iodide staining based flow cytometry analysis (reference value: 7.71%); format: functional
MG-63 [23] = experiment: Induction of apoptosis in human MG-63 cells assessed as reduction in colocalization of TRF2 with telomere at 2 to 4 microM by Immunofluorescence based FISH assay; format: functional, cell-based; settings: dose 2-4 µM
[24] = Acute toxicity in mouse assessed as alanine aminotransferase level (ALT) level in serum at 30 to 90 mg/kg, po single dose measured for 7 days; format: organism-based; settings: in vivo, 168 h, dose 30-90 mg/kg, time 7 day
U2OS [25] = experiment: Induction of DNA damage in human U2OS cells assessed as increase in 53BP1 foci by Immunofluorescence based FISH assay; format: functional, cell-based; settings: dose 2-4 µM
U2OS [26] = experiment: Induction of apoptosis in human U2OS cells assessed as necrotic apoptotic cells at 2 uM measured after 48 hrs annexin-V and propidium iodide staining based flow cytometry analysis (reference value: 2.46%); format: functional
MG-63 [27] = experiment: Antitumor activity against human MG-63 cells xenografted in female BALB/c mouse model assessed as nucleocytoplasmic separation in tumor tissue treated via oral gavage administered once a day for 3 weeks by HE staining analysis; format: functional, cell-based; settings: dose 10-60 mg/kg
U2OS [28] = experiment: Induction of apoptosis in human U2OS cells assessed as late apoptotic cells at 4 uM measured after 48 hrs annexin-V and propidium iodide staining based flow cytometry analysis (reference value: 5.94%); format: functional
U2OS [29] = experiment: Induction of DNA damage response in human U2OS cells assessed as telomere dysfunction by measuring telomere length shortening at 2 to 4 uM by Immunofluorescence based FISH assay; format: functional, cell-based; settings: dose 2-4 µM
[30] = Inhibition of TRF2 expression in human U2OS cells at 2 uM measured after 48 hrs by Western blot analysis relative to control; format: functional
[31] = Toxicity in female BALB/c mouse model xenografted with human MG-63 cells assessed as effect on body weight at 10 to 60 mg/kg, via oral gavage administered once a day for 3 weeks; format: organism-based; settings: in vivo, 504 h, dose 10-60 mg/kg

Compound: COc1cc(OC)c(C(=O)/C=C/c2cccc(Br)c2)c(OC)c1
- Activity [1]: Non-toxic
- viability at 2 µM (U2OS [2]): 67.7%
- Activity [3]: Non-toxic
- inhibition (MG-63 [4]): Active
- viability at 2 µM (MG-63 [5]): 47.9%
- Activity (MG-63 [6]): 11.2%
- Activity (MG-63 [7]): Active; Returned To Control Levels Within 4 Hrs
- Activity [8]: Active
- pIC50 (U2OS [9]): 5.28
- viability at 4 µM (U2OS [10]): 52.2%
- Activity (U2OS [11]): 0.523%
- Activity (U2OS [12]): 18.3%
- Activity (MG-63 [13]): Active
- Activity [14]: Non-toxic
- Activity (MG-63 [15]): Dose-dependent-effect
- Activity (U2OS [16]): Active
- Activity [17]: Non-toxic
- Activity (MG-63 [18]): Dose-dependent-effect; Compound Showed Significantly Stronger Effect Than Ar And Fkb04
- Activity (MG-63 [19]): 15.2%
- Activity (U2OS [20]): Dose-dependent-effect
- Activity [21]: Non-toxic
- Activity (MG-63 [22]): 38.2%
- Activity (MG-63 [23]): Active
- Activity [24]: Non-toxic
- Activity (U2OS [25]): Dose-dependent-effect
- Activity (U2OS [26]): 1.18%
- Activity (MG-63 [27]): Dose-dependent-effect; Significant Than Control
- Activity (U2OS [28]): 16.3%
- Activity (U2OS [29]): Dose-dependent-effect
- inhibition at 2 µM [30]: 55.1%
- Activity [31]: Non-toxic
